Experimental data: patent US20120184504A1, “"The Use of a PAR-1 Antagonist in Combination with a P2Y12 ADP Receptor Antagonist for Inhibition of Thrombosis"” (priority 2009, published 2012)

Experiments:
Assay type in all cases: in vivo, cynomolgus monkeys
[1] = test system: platelet aggregation induced by collagen (3 μg/mL); test: Ex vivo whole blood platelet aggregation induced by collagen
Description: (§1) Animals instrumented to produce CFRs were administered SCH 602539, cangrelor, or a combination of SCH 602539 and cangrelor. The dosing regimens of SCH 602539 were selected to provide a broad range of inhibition of platelet aggregation induced by 1 μM thrombin receptor agonist peptide (TRAP), whereas the doses of cangrelor were selected to achieve 50%-60% inhibition of platelet aggregation induced by 10 μM ADP (the degree of inhibition obtained with clopidogrel). Group 1 received drug vehicle only (20% hydroxypropyl betacyclodextran or saline, 2 mL i.v.). Group 2 received SCH 602539 dissolved in 20% hydroxypropyl betacyclodextran administered as sequential i.v. boluses of 0.1, 0.3, or 1 mg/kg, at 30-minute intervals. Group 3 received cangrelor dissolved in saline and administered as an intravenous infusion of 0.1, 0.2, or 0.3 μg/kg/min for 30 minutes each. Group 4 received a combination of SCH 602539 bolus plus cangrelor infusion (at respective doses of: 1) 0.05 mg/kg+0.05 μg/kg/min; 2) 0.1 mg/kg+0.1 μg/kg/min; and 3) 0.15 mg/kg+0.1 μg/kg/min. The three dose regimens within each group were administered sequentially over the consecutive 30-minute periods coinciding with the re-induction of endothelial injury. Study drug or vehicle was administered after stable CFRs were achieved, and upon the completion of a 30-minute baseline CFR collection period, drug(s) or vehicle were administered incrementally (every 30 minutes) either as a bolus (SCH 602539) or as an infusion (cangrelor), and their effects on CFRs were monitored in the next three 30-minute observation periods. Blood samples (3 mL) were collected from the femoral arterial catheter at the end of each 30-minute observation period for assessment of ex vivo platelet aggregation and coagulation parameters.
(§2) Platelet aggregation studies were performed ex viva on blood samples obtained from the monkeys subjected to the Folts model, using a ChronoLog whole blood aggregometer (Model 540VS, Havertown, Pa.). Briefly, 0.5 mL of blood was incubated with 0.5 mL of normal saline at 37° C. in a cuvette containing a stir bar for 2 minutes. Platelet agonists used in this study included TRAP (3 μM), ADP (10 μM), the thromboxane A2 mimetic U46619 (10 μM), and collagen (3 μg/mL). Platelet aggregation was monitored for 5 minutes following the addition of the agonist. The peak aggregation response was recorded in ohms. In addition, standard coagulation parameters, including prothrombin time (PT), activated partial thromboplastin time (APTT), and activated clotting time (ACT), were assessed.

[2] = Activated clotting time (ACT) in whole blood, Folts model animals; details: for ACT: i.v.; for effect on ACT: tested doses
Description: as §1, §2
(§3) PT and APTT assays were performed with plasma, while the ACT assay was performed with whole blood. Data are presented as mean±SEM (n=5-6/group).

[3] = test system: platelet aggregation induced by thromboxane A2 mimetic U46619 (10 μM); test: Ex vivo whole blood platelet aggregation induced by U46619
Description: as §1, §2

[4] = test system: platelet aggregation induced by TRAP (3 μM); test: Ex vivo whole blood platelet aggregation induced by TRAP
Description: as §1, §2

[5] = test system: platelet aggregation induced by ADP (10 μM); test: Ex vivo whole blood platelet aggregation induced by ADP
Description: as §1, §2

[6] = Activated partial thromboplastin time (APTT) in plasma, Folts model animals; details: for APTT: i.v.; for effect on APTT: tested doses
Description: as §1, §2, §3

[7] = SCH 602539 0.3 mg/kg and 1 mg/kg
[8] = cangrelor 0.2 and 0.3 μg/kg/min

CCOC(=O)N[C@@H]1CC[C@@H]2[C@@H](C1)C[C@H]1C(=O)O[C@H](C)[C@H]1[C@H]2/C=C/c1ccc(-c2ccccn2)cn1 [SCH 602539]
Aggregation, Collagen ([1]; SCH 602539 0.1 mg/kg, baseline 27 ± 4): 26 ± 2 ohms | effect on aggregation induced by 3 μg/mL collagen [1, 7]: did not affect | Aggregation, Collagen ([1]; SCH 602539 0.3 mg/kg, baseline 27 ± 4): 24 ± 3 ohms | Aggregation, Collagen ([1]; SCH 602539 1.0 mg/kg, baseline 27 ± 4): 29 ± 5 ohms | ACT ([2]; SCH 602539 0.1 mg/kg, bolus, whole blood, baseline 79 ± 5.9): 73 ± 2.2 s | ACT ([2]; SCH 602539 0.3 mg/kg, bolus, baseline 79 ± 5.9): 71 ± 4.4 s | ACT ([2]; SCH 602539 1.0 mg/kg, bolus, baseline 79 ± 5.9): 67 ± 4.9 s | effect on ACT [2]: no effect | Aggregation, U46619 ([3]; SCH 602539 0.1 mg/kg, baseline 20 ± 5): 17 ± 3 ohms | effect on aggregation induced by 10 μM U46619 [3, 7]: did not affect | Aggregation, U46619 ([3]; SCH 602539 0.3 mg/kg, baseline 20 ± 5): 19 ± 4 ohms | Aggregation, U46619 ([3]; SCH 602539 1.0 mg/kg, baseline 20 ± 5): 21 ± 5 ohms | Aggregation, TRAP ([4]; SCH 602539 0.1 mg/kg, baseline 14 ± 3): 9 ± 4 ohms | Aggregation, TRAP ([4]; SCH 602539 0.3 mg/kg, baseline 14 ± 3): 2 ± 2 ohms | inhibition of ex vivo platelet aggregation induced by 3 μM TRAP ([4]; two highest doses of SCH 602539 (0.3 mg/kg and 1 mg/kg)): > 80% | Aggregation, ADP ([5]; SCH 602539 0.1 mg/kg, baseline 15 ± 3): 14 ± 2 ohms | effect on aggregation induced by 10 μM ADP [5, 7]: did not affect | Aggregation, ADP ([5]; SCH 602539 0.3 mg/kg, baseline 15 ± 3): 16 ± 3 ohms | Aggregation, ADP ([5]; SCH 602539 1.0 mg/kg, baseline 15 ± 3): 13 ± 4 ohms | APTT ([6]; SCH 602539 0.1 mg/kg, bolus, plasma, baseline 22.8 ± 1.7): 22.4 ± 1.5 s | APTT ([6]; SCH 602539 0.3 mg/kg, bolus, baseline 22.8 ± 1.7): 23.4 ± 2.2 s | APTT ([6]; SCH 602539 1.0 mg/kg, bolus, baseline 22.8 ± 1.7): 25.4 ± 4.9 s | effect on APTT [6]: no effect

CSCCNc1nc(SCCC(F)(F)F)nc2c1ncn2[C@@H]1O[C@H](COP(=O)(O)OP(=O)(O)C(Cl)(Cl)P(=O)(O)O)[C@@H](O)[C@H]1O [Cangrelor]
Aggregation, Collagen ([1]; Cangrelor 0.1 μg/kg/min, baseline 24 ± 3): 20 ± 3 ohms | Aggregation, Collagen ([1]; Cangrelor 0.2 μg/kg/min, baseline 24 ± 3): 20 ± 4 ohms | Aggregation, Collagen ([1]; Cangrelor 0.3 μg/kg/min, baseline 24 ± 3): 20 ± 3 ohms | effect on aggregation stimulated by 3 μg/mL collagen [1, 8]: did not interfere | inhibition of aggregation induced by collagen (discussion) ([1]; cangrelor, tested doses): modest numeric inhibition | ACT ([2]; Cangrelor 0.1 μg/kg/min × 30 min, whole blood, baseline 77 ± 3.7): 79 ± 2.3 s | ACT ([2]; Cangrelor 0.2 μg/kg/min × 30 min, baseline 77 ± 3.7): 76 ± 1.7 s | ACT ([2]; Cangrelor 0.3 μg/kg/min × 30 min, baseline 77 ± 3.7): 74 ± 3.5 s | effect on ACT [2]: no effect | Aggregation, U46619 ([3]; Cangrelor 0.1 μg/kg/min, baseline 15 ± 3): 12 ± 3 ohms | Aggregation, U46619 ([3]; Cangrelor 0.2 μg/kg/min, baseline 15 ± 3): 10 ± 4 ohms | Aggregation, U46619 ([3]; Cangrelor 0.3 μg/kg/min, baseline 15 ± 3): 10 ± 4 ohms | effect on aggregation stimulated by 10 μM U46619 [3, 8]: did not interfere | Aggregation, TRAP ([4]; Cangrelor 0.1 μg/kg/min, baseline 13 ± 3): 12 ± 3 ohms | Aggregation, TRAP ([4]; Cangrelor 0.2 μg/kg/min, baseline 13 ± 3): 12 ± 3 ohms | Aggregation, TRAP ([4]; Cangrelor 0.3 μg/kg/min, baseline 13 ± 3): 9 ± 3 ohms | effect on aggregation stimulated by 3 μM TRAP [4, 8]: did not interfere | Aggregation, ADP ([5]; Cangrelor 0.1 μg/kg/min, baseline 14 ± 3): 10 ± 2 ohms | Aggregation, ADP ([5]; Cangrelor 0.2 μg/kg/min, baseline 14 ± 3): 7 ± 1 ohms | Aggregation, ADP ([5]; Cangrelor 0.3 μg/kg/min, baseline 14 ± 3): 6 ± 1 ohms | APTT ([6]; Cangrelor 0.1 μg/kg/min × 30 min, plasma, baseline 22.5 ± 1.6): 23.6 ± 2.6 s | APTT ([6]; Cangrelor 0.2 μg/kg/min × 30 min, baseline 22.5 ± 1.6): 22.1 ± 1.3 s | APTT ([6]; Cangrelor 0.3 μg/kg/min × 30 min, baseline 22.5 ± 1.6): 22.2 ± 2.0 s | effect on APTT [6]: no effect
